US20100099741A1, “Molecular Targets for Treatment of Learning and Memory Dysfunction” (priority 2008, published 2010)

What was measured:
CREB [1] = assay: Western blot of CREB activity (Ser133 phosphorylation) in primary neurons after neurotransmitter ligands, forskolin or H-89; format: cell-based, rat
Text: With the primary neuronal cultures, we tested the ability of the constructed Boolean network to correctly predict the output activity, following an increase in the concentration of each input molecules. According to the logic equations of the CREB network (1), which provide the on/off state of CREB in response to the on/off states of input neurotransmitters (1), serotonin is the only input activates CREB. To verify this prediction experimentally, we treated primary neurons with equal micromolar concentrations (10 μM) of serotonin, glutamate, dopamine, GABA, and adenosine for 15 minutes and measured the activity of CREB by monitoring Ser133 phosphorylation (14). Receptors of these neurotransmitters are expressed in the primary cortical culture and this concentration is used in the literature to activate these receptors (17-22).
We also tried to verify the biological relevance of the stuck-at-1 and stuck-at-0 fault models used in Abdi et al (1). We tested the effect of serotonin on the activity of CREB when PKA, a highly vulnerable molecule in this network, is either activated (stuck-at-1) or inhibited (stuck-at-0), by forskolin or H-89, respectively. When PKA is stuck-at-1 or 0, the model predicts that serotonin should no longer activate CREB (1). To verify this experimentally, we treated primary neurons with serotonin in the presence or absence of either forskolin or H-89 (FIG. 1E). […] Thus, when the highly vulnerable molecule PKA is stuck-at-1, the network output is not correctly regulated by the input. […] Immunofluorescent analysis of CREB phosphorylation in primary neuron cultures exposed to vehicle, forskolin, or serotonin individually, or to serotonin following treatment with forskolin, was consistent with the results obtained by Western blotting for CREB phosphorylation. The cells were triple labeled with antibodies against Ser133 CREB (as a measure of CREB activity), Map-2 (as a marker that specifically labels neurons), and DRAQ-5 (as a nuclear marker that stains the nucleus of neuronal and normeuronal cells in primary culture). […] Consistent with the Western blot data (FIG. 1E), the effect of serotonin on the activity of CREB in neurons is attenuated, when serotonin was added after treatment with forskolin. […]
Protein extraction, and immunoblot analysis. […] Protein concentration was measured by Bio-Rad's protein assay and spectrometry at 595° A. Equal amounts of total protein were loaded on 4-12% gradient Bis-Tris gels, separated using the NuPAGE system (Invitrogen) and transferred onto nitrocellulose membrane. The membrane was probed with primary and secondary antibodies and signals were detected by chemiluminescence followed by autoradiography. […]

CREB [2] = conditions: previous studies (reference 18); cited from earlier work
CREB [3] = assay: Immunofluorescent analysis of CREB phosphorylation (Ser133) in primary cortical culture; format: cell-based, rat
Text: FIG. 6. Immunofluorescent analysis of primary cortical culture following treatment with vehicle, forskolin, serotonin, or serotonin and forskolin. Red represents the phosphorylated CREB (Ser^133) as a measure of CREB activity. Green represents the Map-2 staining as a specific neuronal marker and blue represent DRAQ-5 nuclear staining of all the cells in the primary culture (both neuronal and glial cells). Images were captured with the same confocal parameters for the four different treatment conditions.
We also tried to verify the biological relevance of the stuck-at-1 and stuck-at-0 fault models used in Abdi et al (1). We tested the effect of serotonin on the activity of CREB when PKA, a highly vulnerable molecule in this network, is either activated (stuck-at-1) or inhibited (stuck-at-0), by forskolin or H-89, respectively. When PKA is stuck-at-1 or 0, the model predicts that serotonin should no longer activate CREB (1). To verify this experimentally, we treated primary neurons with serotonin in the presence or absence of either forskolin or H-89 (FIG. 1E). […] Thus, when the highly vulnerable molecule PKA is stuck-at-1, the network output is not correctly regulated by the input. […]

CREB [4] = assay: Western blot of endogenous CREB Ser133 phosphorylation and total CREB protein in primary cortical neurons after P/Q-type calcium channel or Gαi agonist/antagonist treatment; format: cell-based, rat
Protocol: We altered the activity or abundance of endogenous L AND/OR P/Q-type calcium channels and Gαi in primary cortical neurons from rats and then assayed for the changes in endogenous CREB activity or abundance (see Methods). We used primary neuronal culture as a model system because it has the most similar CREB signaling network to the in vivo signaling networks of the mammalian brain.
Primary cortical culture. Primary cortical cultures were prepared from brains of embryonic day 17 to 18 Sprague-Dawley rats (Charles River). After trituration of cortical sections with a glass pipette, 2 to 4×10^5 neurons were plated on a coverslip (diameter: 12 mm) precoated with poly d-lysine (BD Biocoat). For biochemical analysis, primary cortical cells were plated in 35 mm dishes precoated with poly d-lysine (˜3×10^6 neurons/dish). Neurons were grown in NEUROBASAL Medium supplemented with 0.5 mM L-glutamine, B27 (2%), and N2 (1%) supplements.
Protein extraction, and immunoblot analysis. Primary neurons were cultured as described. Cells were homogenized in ice cold lysate buffer (0.25 M Tris, pH 7.5) containing protease inhibitors (Protease Inhibitor Cocktail tablets, Boehringer Mannheim) and phosphatase inhibitors (Phosphatase Inhibitor Cocktails I & II, Sigma) and lysed through three cycles of freezing (in liquid nitrogen) and thawing (in 37° C. water bath). Protein concentration was measured by Bio-Rad's protein assay and spectrometry at 595° A. Equal amounts of total protein were loaded on 4-12% gradient Bis-Tris gels, separated using the NuPAGE system (Invitrogen) and transferred onto nitrocellulose membrane. The membrane was probed with primary and secondary antibodies and signals were detected by chemiluminescence followed by autoradiography. The following antibodies were used: anti-CREB antibody (Cell Signaling, 1:1000), anti-phospho Ser^133 CREB antibody (Cell Signaling, 1:1000), anti P/Q type calcium channel antibody (Chemicon, 1:1000), and anti-actin antibody (Sigma, 1:1000).
Analysis of CREB regulation by P/Q-type calcium channels or Gαi. Primary cortical neurons were cultured as described. We followed the methods of Dolmetsch et al. (13) to analyze the effect of calcium channel blockers on CREB activity. We characterized the signaling properties of the endogenous P/Q-type calcium channels by monitoring the endogenous activity and total protein levels of CREB. In order to minimize the effect of other elements of calcium or G protein signaling following neuronal depolarization, all experiments were performed without depolarizing the neurons. Previous time-course studies have shown that short-term Ser^133 phosphorylation of CREB are transient events and prolonged Ser^133 phoaphorylation (more than 40 minutes) is required for transcriptional activity (13, 14, 15). Therefore, in these experiments we analyzed the endogenous Ser^133 phosphorylation and total CREB protein abundance following at least 2 hours treatment with agonist or antagonists of P/Q-type calcium channels and 2 hours treatment with agonist or antagonist of Gαi, ω-Agatoxin IVA (Calbiochem), pertussis toxin (Sigma), and Mas-7 (Calbiochem) were dissolved in the appropriate vehicle and added to the medium. Following the treatment, cortical neurons were harvested, lysed, and subjected to Western blot analysis as described.

[5] = 2 hours treatment, pertussis toxin approximately 0.1 or 0.2 μg/ml, MAS-7 approximately 5 or 10 μM
[6] = long-term (12 h) treatment, approximately 1 μM, vs vehicle
[7] = short-term (2.5 h) treatment, approximately 1 μM, vs vehicle

Molecule: O=S(=O)(NCCNC/C=C/c1ccc(Br)cc1)c1cccc2cnccc12 [H-89]
- serotonin-stimulated activity of CREB under inhibition of PKA (CREB [1]; about 10 μM H-89 30 minutes followed by 15 minutes about 10 μM serotonin): prevents serotonin from stimulating the activity of CREB

Molecule: NCCc1c[nH]c2ccc(O)cc12 [serotonin]
- Ser133 CREB phosphorylation (CREB [2]): can induce
- activity of CREB (phospho-Ser133 staining) in neuronal and non-neuronal cells (CREB [3]; primary cortical culture, triple labeled with phospho-CREB, Map-2, DRAQ-5): only increased the activity of CREB in the neurons
- effect of serotonin on the activity of CREB in neurons when added after forskolin (CREB [3]; serotonin added after treatment with forskolin): attenuated
- activity of CREB (Ser133 phosphorylation) (CREB [1]; 10 μM for 15 minutes, primary neurons, vs vehicle): most robust effect
- activity of CREB on serotonin treatment following activation of PKA by forskolin, compared to serotonin only (CREB [1]; about 10 μM forskolin 30 minutes followed by 15 minutes about 10 μM serotonin): did not affect the activity of CREB
- activity of CREB, individual treatments (CREB [1]; about 10 μM, forskolin 30 minutes, serotonin 15 minutes, primary neurons): activate CREB

Molecule: pertussis toxin
- Ser133 phosphorylation of CREB (CREB [4]; [5]): increase
- abundance of CREB (CREB [4]; [5]): increase

Molecule: ω-Agatoxin IVA
- abundance of CREB (CREB [4]; [6]): decreased
- phosphorylation of CREB at Ser133 (CREB [4]; [6]): decreased
- phosphorylation of CREB at Ser133 (CREB [4]; [7]): increased
- total abundance of CREB (CREB [4]; [7]): without changing
